Laboratory results published in PMC7043210, “Differential activation of G protein‐mediated signaling by synthetic cannabinoid receptor agonists” (Pharmacology Research & Perspectives, 2020).
Entries after “also recorded” stand apart in the source; their conditions may differ. Where two headings read alike, the source gives them in different places.

Experiments:
human CB1 receptor [1] = biological target: T1, human CB1 receptor (Homo sapiens, UniProt P21554); format: cell-based
T1 construct: HA (hemagglutinin); expressed in transfected cells; host or cells: HEK 293 FlpIn cells with GIRK4 expression, stably transfected (pcDNA5/FRT + pOG44)
T1 sequence (P21554 whole entry): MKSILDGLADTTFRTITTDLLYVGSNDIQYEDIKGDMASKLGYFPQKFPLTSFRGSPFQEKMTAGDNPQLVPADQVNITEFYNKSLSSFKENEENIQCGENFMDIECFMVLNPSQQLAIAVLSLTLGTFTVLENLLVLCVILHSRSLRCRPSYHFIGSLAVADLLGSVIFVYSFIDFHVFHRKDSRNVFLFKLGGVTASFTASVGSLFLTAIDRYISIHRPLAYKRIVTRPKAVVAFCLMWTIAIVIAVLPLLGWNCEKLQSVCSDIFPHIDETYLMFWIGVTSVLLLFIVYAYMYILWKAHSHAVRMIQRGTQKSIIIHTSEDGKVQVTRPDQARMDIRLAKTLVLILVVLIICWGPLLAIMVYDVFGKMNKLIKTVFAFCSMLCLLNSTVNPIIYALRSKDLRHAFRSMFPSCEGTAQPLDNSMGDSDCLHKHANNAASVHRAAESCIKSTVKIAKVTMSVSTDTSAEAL

HEK 293 wild‐type cells = assay: FSK-stimulated cAMP accumulation in HEK 293 wild-type cells (not containing CB1 receptors); format: cell-based, human; details: 10 µmol L^−1, HEK 293 wild-type cells
CB1 [2] = tested on: CB1; parameters: method as in PMID 29408093; details: HEK cells transiently expressing CB1; cited from earlier work
CB1 [3] = tested on: CB1; parameters: method as in PMID 30925348, PMID 26795398, PMID 29042214, PMID 28874764, PMID 25769232; details: mice; cited from earlier work
human CB1 receptor [4] = biological target: T1, human CB1 receptor; format: cell-based; remark: listed apart in the source
[5] = read-out: G i (‐PTX) EC50 (converted)
[6] = read-out: G s (+PTX) EC50 (converted)
[7] = read-out: Gs (+PTX) EC50 (converted)

| SMILES | effect of SR141716A pretreatment on SCRA-mediated stimulation of FSK-induced cAMP response (human CB1 receptor [1]) | induced seizures, mechanism (CB1 [3]) | G i (‐PTX) E max (% FSK) (human CB1 receptor [4]) | G i (‐PTX) pEC50 (human CB1 receptor [4]) | G i (−PTX) selectivity (human CB1 receptor [4]) | EC50 (human CB1 receptor [4]; [5]) | G s (+PTX) E max (% FSK) (human CB1 receptor [1]) | G s (+PTX) pEC50 (human CB1 receptor [1]) | EC50 (human CB1 receptor [1]; [6]) | increase in cAMP levels above that produced by FSK alone (human CB1 receptor [1]) | also measured |
| --- | --- | --- | --- | --- | --- | --- | --- | --- | --- | --- | --- |
| CC(C)[C@H](NC(=O)c1nn(CC2CCCCC2)c2ccccc12)C(N)=O | only partially inhibited; also recorded: not significantly different |  |  |  |  |  |  |  |  |  | increase in cAMP levels above that of FSK alone (human CB1 receptor [1]): 86 ± 21%; increase in FSK‐stimulated cAMP accumulation (HEK 293 wild‐type cells): 29 ± 10%; effect on cAMP levels in absence and presence of forskolin (CB1 [2]): elevation in cAMP levels |
| CCCCC/C=C\C/C=C\C/C=C\C/C=C\CCCC(=O)OC(CO)CO [2‐AG, 2‐arachidonoyl glycerol, reference compound] |  |  |  |  |  |  |  |  |  |  | effect on cAMP relative to CP55940 (human CB1 receptor [1]): approximately twice that of CP55940 |
| CC(C)[C@H](NC(=O)c1nn(CCCCCF)c2ccccc12)C(N)=O [5F‐AB‐PINACA] |  | CB1‐mediated |  |  |  |  |  |  |  |  |  |
| COC(=O)[C@@H](NC(=O)c1cn(CCCCCF)c2ccccc12)C(C)(C)C [5F‐MDMB‐PICA] | inhibited |  | 60 ± 4 % FSK | 9.2 ± 0.2 (0.62) | 137 | 0.62 nM | 126 ± 5 % FSK | 7.1 ± 0.4 (85) | 85 nM |  | effect of SR141716A pretreatment on SCRA-induced inhibition of cAMP signaling (human CB1 receptor [4]): blocked |
| CC(C)[C@H](NC(=O)c1nn(Cc2ccc(F)cc2)c2ccccc12)C(N)=O [AB‐FUBINACA] | inhibited |  | 61 ± 2 % FSK | 9.0 ± 0.2 (0.96) |  | 0.96 nM | 144 ± 12 % FSK |  |  | more than 30% | Gi (-PTX) selectivity (human CB1 receptor [4]): 348; effect of SR141716A pretreatment on SCRA-induced inhibition of cAMP signaling (human CB1 receptor [4]): blocked; EC50 (human CB1 receptor [4]; read-out: Gi (-PTX) EC50 (converted)): 1.1 nM; effect on cAMP relative to CP55940 (human CB1 receptor [1]): up to 2.5 times; EC50 (human CB1 receptor [1]; [7]): 383 nM |
| CCCCCn1nc(C(=O)N[C@H](C(N)=O)C(C)C)c2ccccc21 [AB‐PINACA] |  |  |  |  |  |  |  |  |  | more than 30% |  |
| O=C(c1cccc2ccccc12)c1cn(CCCCCF)c2ccccc12 [AM‐2201] |  | CB1‐mediated |  |  |  |  |  |  |  |  |  |
| CCCCCCC(C)(C)c1ccc([C@@H]2C[C@H](O)CC[C@H]2CCCO)c(O)c1 [CP55940, reference compound] |  |  |  |  |  |  |  |  |  | 19% |  |
| CC(C)(NC(=O)c1nn(CCCCC#N)c2ccccc12)c1ccccc1 [CUMYL‐4CN‐BINACA, reference compound] |  | CB1‐mediated |  |  |  |  |  |  |  |  |  |
| CCCCCn1cc(C(=O)c2cccc3ccccc23)c2ccccc21 [JWH‐018] | inhibited | CB1‐mediated |  | 7.8 ± 0.2 (16) | 18 | 16 nM | 114 ± 4 % FSK | 6.5 ± 0.7 (288) | 288 nM |  | Gi (-PTX) selectivity (human CB1 receptor [4]): 14; effect of SR141716A pretreatment on SCRA-induced inhibition of cAMP signaling (human CB1 receptor [4]): blocked; Gs (+PTX) pEC50 (human CB1 receptor [1]): 6.7 ± 0.7 (221); activation of Gαs pathway (increase over FSK alone) (human CB1 receptor [1]): 14%; EC50 (human CB1 receptor [1]; [7]): 221 nM |
| CCCCCn1cc(C(=O)Oc2cccc3cccnc23)c2ccccc21 [PB‐22] |  |  | 64 ± 3 % FSK | 8.6 ± 0.2 (2.5) | 28 | 2.5 nM | 130 ± 3 % FSK | 7.2 ± 0.5 (69) | 69 nM | more than 30% |  |
| CC1(C)C(C(=O)c2cn(CCCCCF)c3ccccc23)C1(C)C [XLR‐11] |  |  | 63 ± 2 % FSK | 7.2 ± 0.2 (63) | 75 | 63 nM | 124 ± 5 % FSK | 5.3 ± 0.8 (4720) | 4720 nM |  | Gi (-PTX) selectivity (human CB1 receptor [4]): 103; Gs (+PTX) pEC50 (human CB1 receptor [1]): 5.2 ± 0.8 (6490); EC50 (human CB1 receptor [1]; [7]): 6490 nM |
